Key:
Format in all cases: cell-based
Details in all cases: 72 h; human CD4+ T cells under TH17-polarizing conditions, 3 days; supernatant ELISA
IL-17A = assay: Human TH17 cytokine inhibition as measured by ELISA (IL-17A)
Protocol: (§1) Human TH17 Cytokine Inhibition as Measured by ELISA Peripheral blood mononuclear cells (PBMCs) were sourced from freshly prepared leukocyte enriched plasma (buffy coat) from healthy donors (New York Blood Center). PBMCs were isolated by density gradient centrifugation using Ficoll-Paque™ PLUS (GE Healthcare). Human CD4+ T cells were seeded into 96-well plates (5×10^4 cells/well) and activated with plate-bound anti-human (h)-CD3 antibody and soluble h-aCD28 (both at 1 ug/ml; eBioscience) and differentiated into TH17 cells with 20 ng/mL h-IL-6, 5 ng/mL h-TGF-β1, 10 ng/mL h-IL-23 (eBioscience) and 10 ng/mL IL-1β (Miltenyi Biotec) in serum-free TexMACS Medium (Miltenyi Biotec) supplemented with 1% Penicillin/Streptomycin (Lonza) for 3 days. CD4+ T cells propagated under TH17-polarizing conditions were cultured in the presence or absence of various concentrations of compounds with a final concentration of 0.1% DMSO. Supernatants were collected and stored at −20° C. until assayed for IL-17A, IL-17F and IL-21 levels by “Ready-Set-Go” ELISA kits (eBioscience) as per manufacturer's instructions. Endpoint absorbance was read at 450 nm using a microplate reader (Perkin Elmer).

IL-17F = assay: Human TH17 cytokine inhibition as measured by ELISA (IL-17F)
Protocol: as §1

IL-21 = assay: Human TH17 cytokine inhibition as measured by ELISA (IL-21)
Protocol: as §1

Measured: IC50

O=C(c1ccccc1)N1C2CCC1C(CN1CCc3cc(-c4cn[nH]c4)ccc31)C2 (stereo not drawn) [Example 9, (2-((5-(1H-pyrazol-4-yl)-1H-indolin-1-yl)methyl)-7-azabicyclo[2.2.1]heptan-7-yl)(phenyl)methanone]
< 10 µM: all assays above

O=C(Cc1ccccc1)N1C2CCC1C(Cn1ccc3cc(-c4cn[nH]c4)ccc31)C2 (stereo not drawn) [Example 10, 1-(2-((5-(1H-pyrazol-4-yl)-1H-indol-1-yl)methyl)-7-azabicyclo[2.2.1]heptan-7-yl)-2-phenylethanone]
< 10 µM: all assays above

O=C(CCc1ccccc1)N1C2CCC1C(Cn1ccc3cc(-c4cn[nH]c4)ccc31)C2 (stereo not drawn) [Example 11, 1-(2-((5-(1H-pyrazol-4-yl)-1H-indol-1-yl)methyl)-7-azabicyclo[2.2.1]heptan-7-yl)-3-phenylpropan-1-one]
< 10 µM: all assays above

O=C(C1CCCCC1)N1C2CCC1C(Cn1ccc3cc(-c4cn[nH]c4)ccc31)C2 (stereo not drawn) [Example 12, (2-((5-(1H-pyrazol-4-yl)-1H-indol-1-yl)methyl)-7-azabicyclo[2.2.1]heptan-7-yl)(cyclohexyl)methanone]
< 10 µM: all assays above

O=C(CC1CCCCC1)N1C2CCC1C(Cn1ccc3cc(-c4cn[nH]c4)ccc31)C2 (stereo not drawn) [Example 13]
< 10 µM: all assays above

CC(C)CC(=O)N1C2CCC1C(Cn1ccc3cc(-c4cn[nH]c4)ccc31)C2 (stereo not drawn) [Example 14, 1-(2-((5-(1H-pyrazol-4-yl)-1H-indol-1-yl)methyl)-7-azabicyclo[2.2.1]heptan-7-yl)-3-methylbutan-1-one]
< 10 µM: all assays above

CC(C)C(=O)N1C2CCC1C(Cn1ccc3cc(-c4cn[nH]c4)ccc31)C2 (stereo not drawn) [Example 15, 1-(2-((5-(1H-pyrazol-4-yl)-1H-indol-1-yl)methyl)-7-azabicyclo[2.2.1]heptan-7-yl)-2-methylpropan-1-one]
< 10 µM: all assays above

— patent publication US20150252051A1, “RETINOIC ACID RECEPTOR-RELATED ORPHAN RECEPTOR MODULATORS AND USES THEREOF” (INNOV17 LLC, priority 2014, published 2015)
